In US9949489B2, “Methods for control of hemipteran insect stylet sheath structure formation” (The United States of America, as Represented by the …, priority 2015, dated 2018):

Key:
D. citri [1] = experiment: Liquid ACP diet sandwich feeding assay (MFC): inhibition of de novo stylet sheath formation; format: in vivo, Diaphorina citri; parameters: key: −: No effect apparent inhibition of stylet sheath; +/−: inconclusive inhibition; +: apparent slight inhibition effect; ++: increased apparent inhibition effect; +++: high inhibition effect; ++++: very high inhibition effect; +++++: complete inhibition of sheath synthesis; details: small molecule in liquid ACP diet, about 24 h, concentration, pH, 25° C. per Table 3
Description: (§1) The next step was to determine if addition of cellulase to the diet of D. citri would interfere with stylet sheath formation. A D. citri diet is prepared as described by Hall, David et al., “Research toward an artificial diet for adult Asian citrus psyllid,” Annals of the Entomological Society of America 103.4:611-617 (2010). Approximately 25 D. citri were collected into polystyrene Cellstar 35 mm×10 mm dishes (Griener Bio-One, Monroe, N.C.) that were then sealed using a single layer of Parafilm® M (Pechiney Plastic Packaging Company, Chicago, Ill.). Approximately 99 μl of liquid ACP diet (e.g., diet lacking the solidifying agar component, see Hall, et. al., 2010, supra) was mixed with approximately 1 μl of cellulase (Sigma Aldrich, St. Louis, Mo.) and mixed. […] layer Parafilm® M surface, which was then covered with another layer of Parafilm® M to form a sandwich (e.g., Parafilm® M—liquid ACP diet with cellulase—Parafilm® M) to allow ACP to feed into the liquid ACP diet containing cellulase. This MFC was then incubated at about 25° C., at about 75% relative humidity, with a light:dark cycle of approximately 14:10 hours for a period of about 24 hours. After about 24 hours, the stylet sheaths were observed using an inverted microscope. FIGS. 3G through 3I are images of three separate locations where D. citri made attempts to feed into the liquid ACP diet containing approximately 1 unit/μl cellulase.
(§2) Because many biomolecule polymerizing enzymes require divalent cations as cofactors, the effect of ethylenediaminetetraacetic acid (EDTA), a chelator of divalent cations, on ACP SS formation was tested by adding EDTA to the previously described liquid ACP diet (see Hall et al., 2010, supra). The EDTA was added to the liquid ACP diet at a concentration of approximately 2 mM EDTA in diH2O. Approximately 200 D. citri were placed in plastic Petri dishes. The dishes were covered with a single layer of Parafilm® M to form MFC. […] The MFC plates were incubated at a temperature of about 25° C., a relative humidity of about 75%, and a light/dark cycle of about 14:10 hours duration. Following the 24-hour incubation, the fluid (either liquid ACP diet containing EDTA or just the liquid ACP diet) between the two sheets of plastic was harvested by using a sterile 5 ml syringe and 20-gauge needle which was pushed into the center of the Parafilm® M-fluid-Parafilm® M sandwich, and the fluid was then removed by syringe plunger suction. The harvested fluids were put into sterile 50 ml conical vials, placed at about −80° C. until frozen. Each vial of harvested fluid was then lypholyzed overnight. The lyophilized product was then solubilized in […], placed at about −80° C. until frozen, then each new vial was lyopholyzed overnight. The lyophilized product was then solubilized in approximately 15 μL of approximately 1× Laemmili buffer (Bio-Rad, Hercules, Calif.) containing approximately 5% 2-mercaptoethanol. The sample was loaded onto a sodium dodecyl sulfate polyacrylamide gel (SDS-PAGE) and underwent electrophoresis. The SDS PAGE gel was then stained with coomassie. Uncommon bands between the liquid ACP diet containing EDTA and liquid ACP diet without EDTA (negative control) lanes were cut out and analyzed by Orbitrap (Thermo Scientific, Waltham, Mass.) protein analysis, according to manufacturer's protocol.
(§3) After about 24-hour incubation, D. citri feeding sites were observed. […] See also Table 2 and Table 3, infra.

D. citri [2] = experiment: as above; format: in vivo, Diaphorina citri; details: for Effect on D. citri stylet sheath formation in liquid ACP diet: about 24 h, cellulase approx 1 unit/μl, BAPN 100 mM, EDTA approx 2 mM, proteases per Table 5; for Effect (on ACP stylet sheath formation): D. citri, GRAS small molecule in 175 μL liquid ACP diet at the mM concentration of Table 8, about 24 h
Description: as §1, §2, §3

[3] = system: Bemisia tabaci biotype B whitefly; experiment: Liquid ACP diet sandwich feeding assay: stylet sheath formation by whitefly; format: in vivo; parameters: key to Inhibition of Sheath Formation: −: No effect apparent inhibition of stylet sheath; +/−: inconclusive inhibition; +: apparent slight inhibition effect; ++: increased apparent inhibition effect; +++: high inhibition effect; ++++: very high inhibition effect; +++++: complete inhibition of sheath synthesis
Description: The effects of a protease (bromelain and ficin) contained within the previously described artificial diet (liquid ACP diet) were tested on the Bemisia tabaci biotype B whitefly (a Aleyrodidae, an SSFHI) using approximately 100 live B. tabaci. Approximately 100 live B. tabaci were placed into polystyrene Cellstar 35 mm×10 mm dishes (Griener Bio-One, Monroe, N.C.) using the liquid ACP diet “sandwich” described in Example 2, using approximately 200 μL liquid ACP diet with or without a protease using the conditions described in Table 6 below. The MFCs were incubated at a temperature of about 25° C., a relative humidity of about 75%, and a light:dark cycle of approximately 14:10 hours. MFCs were maintained within clear Pyrex® baking dishes with the membrane (liquid ACP diet “sandwich”) side up, and the baking dish covered in a single layer of clear plastic wrap to prevent external contaminant interactions with the membrane surface during incubation. After about 24 hours incubation, the B. tabaci feeding sites were observed using an inverted microscope to see the effects of proteases in diet on the stylet sheaths for B. tabaci.
After performing the experiments using liquid ACP diet containing either bromelain or ficin experiment on B. tabaci, a similar experiment is performed substituting BAPN for the enzyme. […]

| Structure (SMILES) | Inhibition of Sheath Formation (D. citri [1]) | Effect (on ACP stylet sheath formation) (D. citri [2]) | other results |
| --- | --- | --- | --- |
| O[C@H](CS)[C@H](O)CS (racemic) [Dithiothreitol Solution (DTT), Dithiothreitol] | ‘+++++’ (D. citri) |  |  |
| N#CCCN.O=C(O)/C=C/C(=O)O [3-aminopropionitrile fumarate salt] | ‘+++++’ (D. citri) |  | Effect on D. citri stylet sheath formation in liquid ACP diet (D. citri [2]): prohibited the solidification of the ACP SS; Inhibition of Sheath Formation ([3]; WF (Bemisia tabaci, B biotype), BAPN 50 mM in diet): ‘+++++’ (WF); Effect on B. tabaci stylet sheath formation in liquid ACP diet ([3]; about 24 hours, bromelain or ficin 10 units in 250 μl of diet, BAPN 50 mM): prevents stylet sheath formation |
| OCc1ccc(O)cc1 [4-hydroxybenzyl alcohol] | ‘−’ (D. citri) |  |  |
| O=c1ccc2ccc(O)cc2o1 [7-HO-Coumarin, 7-hydroxy-coumarin] |  | Malformed sheaths |  |
| [NH4+].[NH4+].[SH-].[SH-].[S]=[Mo]=[S] [Ammonium Tetrathiomolybdate] | ‘+++++’ (D. citri) |  | Effect on D. citri stylet sheath formation in liquid ACP diet (D. citri [2]): potent inhibitor of D. citri sheath formation |
| COc1ccc([C@@H]2CC(=O)c3c(O)cc(O[C@@H]4O[C@H](CO[C@@H]5O[C@@H](C)[C@H](O)[C@@H](O)[C@H]5O)[C@@H](O)[C@H](O)[C@H]4O)cc3O2)cc1 [Didymin] |  | Malformed sheaths |  |
| C[C@@H]1O[C@@H](OC[C@H]2O[C@@H](Oc3cc(O)c4c(c3)O[C@H](c3ccc(O)c(O)c3)CC4=O)[C@H](O)[C@@H](O)[C@@H]2O)[C@H](O)[C@H](O)[C@H]1O [Eriocitrin] |  | Malformed sheaths | Effect (on ACP stylet sheath formation) (D. citri [2]; listed as eriocitrin): malformation of sheaths |
| O=C1C[C@@H](c2ccc(O)c(O)c2)Oc2cc(O)cc(O)c21 [Eriodictyol] |  | Malformed sheaths |  |
| O=C(O)CN(CCN(CC(=O)O)CC(=O)O)CC(=O)O [Ethylenediaminetetraacetic acid (EDTA), Ethylenediaminetetraacetic acid] | ‘+++++’ (D. citri) |  | Effect on D. citri stylet sheath formation in liquid ACP diet (D. citri [2]): can inhibit sheath formation |
| COc1ccc([C@@H]2CC(=O)c3c(O)cc(O)cc3O2)cc1O [Hesperetin] |  | Malformed sheaths |  |
| COc1ccc([C@@H]2CC(=O)c3c(O)cc(O[C@@H]4O[C@H](CO[C@@H]5O[C@@H](C)[C@H](O)[C@@H](O)[C@H]5O)[C@@H](O)[C@H](O)[C@H]4O)cc3O2)cc1O [Hesperidin] |  | No Effect |  |
| O=c1cc(CO)occ1O [Kojic Acid] | ‘++’ (D. citri) |  |  |
| CC1(C)O[C@H]2CC(=O)OC[C@]23[C@H]2CC[C@@](C)([C@@H](O[C@@H]4O[C@H](CO)[C@@H](O)[C@H](O)[C@H]4O)c4ccoc4)[C@@]4(O[C@@H]4C(=O)O)[C@]2(C)C(=O)C[C@@H]13 [Limonin glucoside] |  | Malformed sheaths |  |
| CC1(C)O[C@H]2CC(=O)OC[C@]23[C@H]2CC[C@@]4(C)[C@H](c5ccoc5)OC(=O)[C@H]5O[C@]54[C@]2(C)C(=O)C[C@@H]13 [Limonin] |  | Malformed sheaths |  |
| O=C1C[C@@H](c2ccc(O)cc2)Oc2cc(O)cc(O)c21 [Naringenin] |  | Malformed sheaths |  |
| C[C@@H]1O[C@@H](O[C@H]2[C@H](Oc3cc(O)c4c(c3)O[C@H](c3ccc(O)cc3)CC4=O)O[C@H](CO)[C@@H](O)[C@@H]2O)[C@H](O)[C@H](O)[C@H]1O [Naringin] |  | Malformed sheaths |  |
| O=C([O-])CN(CC(=O)[O-])CC(=O)[O-].[Na+].[Na+].[Na+] [Nitrilotriacetic acid trisodium salt] | ‘+++++’ (D. citri) |  |  |
| CC(=O)O[C@H]1CC(=O)OC(C)(C)[C@@H]2CC(=O)[C@]3(C)[C@H](CC[C@@]4(C)[C@H](c5ccoc5)OC(=O)[C@H]5O[C@]543)[C@@]12C [Nomilin] |  |  | Effect (on ACP stylet sheath formation) (D. citri [2]; listed as nomilin): inhibition of flange solidification |
